Laboratory results taken from publication PMC6085350, “Small molecule inhibitors of RAS-effector protein interactions derived using an intracellular antibody fragment” (Nature Communications, 2018).
≈ marks a conversion by molar mass, not a printed value. Each block holds one compound with its values, some of them ahead of it.

Experiments:
[1] = molecular target: T1, GST-HRAS^G12V-GTPγS-anti-RAS single chain Fv (scFv) (Homo sapiens, UniProt P01112, G12V); assay: Competitive SPR (cSPR) with anti-RAS scFv bound to HRAS; type: binding; conditions: 3 to 2000 μM range
T1 construct: expression of HRAS (1-166) HRAS^G12V or KRAS^G12V cDNA cloned into the pGEX-2T vector; made in house; host or cells: E. coli C41(DE3)
Description: For competitive SPR (cSPR) assays between anti-RAS scFv and candidate fragment binder, after immobilizing anti-GST polyclonal antibody was immobilized on CM5 sensor chip as described above, then 5 µg/ml GST-HRAS-GTPγS protein was injected at 5 µl/min for 900 s to flow cells Fc2 and 4 and 5 µg/ml GST-HRAS-GDP to Fc3. Following GST-HRAS capture on the flow cells, 5 µg/ml anti-RAS scFv Y6-204 was injected at 5 µl/min for 900 s only to Fc4 until reaching an additional 1500–1800 RU, which is theoretically when all GST-HRAS-GTPγS should be bound to anti-RAS scFv with 1:1 interaction stoichiometry. After completing anti-RAS scFv injection, the sensograms were confirmed to be stable (i.e. anti-RAS scFv was not dissociated from GST-HRAS-GTPγS on Fc4). […]

[2] = Solubility; type: physicochemical
[3] = molecular target: T2, GST-HRAS^G12V-GDP (Homo sapiens, UniProt P01112, G12V); assay: SPR binding to GDP-bound HRAS; conditions: 3 to 2000 μM range
T2 construct: expression of HRAS (1-166) HRAS^G12V or KRAS^G12V cDNA cloned into the pGEX-2T vector; made in house; host or cells: E. coli C41(DE3)
Description: (§1) A BIAcore T100 (GE Healthcare) was used to screen the fragment library for RAS binders. A polyclonal goat anti-GST antibody (GE Healthcare) was immobilized on a CM5 sensor chip (GE Healthcare) by the amine coupling method. To immobilize the antibody on CM5 chip, the chip was first activated by injecting 100 µl mixture of 0.2 M EDC (N-ethyl-N-(dimethylaminopropyl) carbodiimide hydrochloride) and 0.05 M NHS (N-hydroxysuccinimide) at 10 µl/min flow rate. Furthermore, 100 µg/ml anti-GST antibody in 10 mM sodium acetate, pH 5.0 was injected at 5 µl/min for 900 s and immobilized until 20,000 ~ 25,000 RU. After immobilization the chip was immediately inactivated by injecting 1 M ethanolamine, pH 8.5 at 10 µl/min for 600 s. The chip was kept running in the HBS buffer (GE Healthcare) comprising 10 mM HEPES, pH 8.0, 150 mM NaCl. Of all, 5 µg/ml recombinant GST, GST-HRAS^G12V-GTPγS or GST-HRAS^G12V-GDP proteins were injected into flow cell Fc4, Fc2 and Fc3, respectively for trapping through the immobilized anti-GST antibody. The GST-HRAS^G12V-GTPγS, GST-KRAS^G12V-GppNHpp, or GST-HRAS^G12V-GDP proteins were injected at 5 µl/min for 900 s and usually reached approximately 2000–2500 RU. […]

[4] = molecular target: T3, GST-HRAS^G12V-GTPγS (Homo sapiens, UniProt P01112, G12V); assay: SPR binding to immobilized GST-HRAS G12V-GTPγS
T3 construct: expression of HRAS (1-166) HRAS^G12V or KRAS^G12V cDNA cloned into the pGEX-2T vector; made in house; host or cells: E. coli C41(DE3)
Description: as §1
The corresponding kinetic […], were determined using steady-state analysis of the compounds’ binding affinities, assuming 1:1 ligand-protein stoichiometry. […]

[5] = molecular target: T4, KRAS^G12V-GppNHp (Homo sapiens, UniProt P01116, G12V); assay: SPR binding to KRAS G12V-GppNHp; conditions: 100 μM, run in triplicate
T4 construct: made in house; host or cells: E. coli (pGEX-2T; strain named only for the HRAS plasmids)
Description: A BIAcore T100 (GE Healthcare) was used to screen the fragment library for RAS binders. A polyclonal goat anti-GST antibody (GE Healthcare) was immobilized on a CM5 sensor chip (GE Healthcare) by the amine coupling method. To immobilize the antibody on CM5 chip, the chip was first activated by injecting 100 µl mixture of 0.2 M EDC (N-ethyl-N-(dimethylaminopropyl) carbodiimide hydrochloride) and 0.05 M NHS (N-hydroxysuccinimide) at 10 µl/min flow rate. Furthermore, 100 µg/ml anti-GST antibody in 10 mM sodium acetate, pH 5.0 was injected at 5 µl/min for 900 s and immobilized until 20,000 ~ 25,000 RU. After immobilization the chip was immediately inactivated by injecting 1 M ethanolamine, pH 8.5 at 10 µl/min for 600 s. The chip was kept running in the HBS buffer (GE Healthcare) comprising 10 mM HEPES, pH 8.0, 150 mM NaCl. Of all, 5 µg/ml recombinant GST, GST-HRAS^G12V-GTPγS or GST-HRAS^G12V-GDP proteins were injected into flow cell Fc4, Fc2 and Fc3, respectively for trapping through the immobilized anti-GST antibody. The GST-HRAS^G12V-GTPγS, GST-KRAS^G12V-GppNHpp, or GST-HRAS^G12V-GDP proteins were injected at 5 µl/min for 900 s and usually reached approximately 2000–2500 RU. The GST was injected at same flow rate until about 1200–1350 RU which is 0.54 times less than the GST-HRAS^G12V-GTPγS or GST-HRAS-GDP capture amounts, taking into consideration relative molecular weights (GST, 26KDa, GST-RAS, 48KDa, respectively). Before fragment library screening, the running buffer was replaced by 20 mM Tris, pH 8, 150 mM NaCl, 5 mM MgCl2, 5% DMSO. DMSO solvent correction curves were generated by injecting the running buffers with serial concentrations of DMSO ranging from 4.5 to 6%. […] The individual compounds were injected at 30 µl for 60 s at 30 µl/min flow rate over flow cells Fc1, Fc2, Fc3 and Fc4. The captured GST and GST-RAS were removed from the chip by rinsing with 40 µl 10 mM glycine-HCl, pH 2.1 at 20 µl/min flow rate after every 48 compounds sequential injection. The chip was regenerated by injecting new GST and GST-RAS proteins as described above.

[6] = tested on: DLD-1 cells (KRAS^G13D); assay: Cell viability (CellTiterGlo), DLD-1; type: cell-based, human; conditions: DLD-1, 0–20 μM, up to 72 h
Description: (§2) Fig. 5 Abd-7 results on RAS-dependent signalling pathways and cell viability. a, b DLD-1 (a) or H358 (b) cells were serum-starved for 24 h, incubated in mono-layer with Abd-7 in a range from 2, 5, 10 and 20 μM for 3 h and stimulated with EGF 10 min. Proteins were extracted and separated by SDS-PAGE and transferred to membranes for Western analysis with anti-pAKT, anti-pERK, anti-pan AKT and anti-pan ERK. Anti-cyclophilin B antibody was the loading control. Signal was developed using standard ECL. c–e Effects of compounds Abd-2, Abd-4, Abd-5, Abd-6, and Abd-7 on the viability of human cancer cells lines was assessed for a 2-D culture of DLD-1 (mutant KRAS^G13D) cells and HT1080 cells (mutant NRAS^Q61K). The cells were treated with a dose range from 0 μM to 20 μ and incubated for 72 h when cell viability was assessed using CellTitreGlo. […] Each experiment was repeated at least three times (a, b) and four times (c, d). Where error bars are presented, they correspond to mean values ± SD of biological repeats […]
(§3) Cancer cell lines were in seeded in ViewPlates-96 microplates (PerkinElmer). DLD-1 cells were plated at 10,000 cells per well and HT1080 cells at 7500 cells per well and cultured in DMEM, high glucose, GlutaMAX media containing 10% FBS at 37 °C in 5% CO2 atmosphere. Cells were cultured overnight and the compounds (dissolved in DMSO and diluted to 0.2% DMSO) were added to the cells at concentrations ranging from 0 to 20 μM. The cells were incubated under standard culture conditions for either 24, 48 or 72 h. Cell viability was as quantitated using the CellTiterGlo Luminescent Cell Viability Assay (Promega) according to the manufacturer’s instructions to measure ATP generated by metabolically active cells. Luminescent signals were measured using an Envision 2103 Multilabel Microplate Reader (PerkinElmer). The luminescence signals obtained from the compound-treated cells were normalized against the signal for DMSO-only treated cells. The IC50 values, calculated from the 48 and 72 h CellTiterGlo data, were generated by non-linear regression using the software GraphPad Prism 7.00 for windows (GraphPad Inc).
(§4) Supplementary Figure 7: The effect of Abd compounds on the viability of cancer cells The effect of the chemical series on the viability of human cancer cells lines DLD -1 (a colorectal cancer cell line with mutant KRAS
(§5) ) and HT1080 (a fibrosarcoma cell line with
(§6) ). The cells were treated with a dose range from […] of either
(§7) Abd-2, Abd-4, Abd-5, Abd-6 and Abd-7 and incubated for 24 or 48 hours. Cell viability was assessed using CellTitreGlo . In each case, the data are normalized to cells treated with DMSO only. Panels a and b are DLD-1 viability and panels c and d are HT1080 viability.
(§8) The IC50 for Abd-7 at 48 & 72 […]
(§9) hours are shown in panel f. Each experiment was repeated at least four times ( a to d).
(§10) Where error bars are presented, they correspond to mean values ± SD of biological repeats.
(§11) (1 picture or pasted object on this page, not shown here)

[7] = tested on: RAS-effector PPI; assay: RAS biosensor BRET assay (partners not specified); type: cell-based, human
Description: The BRET assay was carried out as described elsewhere. A total of 650,000 HEK293T were seeded in each well of a six well plate. Approximately, 24 h later, cells were transfected with an appropriated BRET-based RAS biosensor (i.e. RAS-effector) using Lipofectamine 2000 transfection reagent (Thermo-Fisher). Cells were detached 24 h later and washed with PBS and seeded in a white 96 well plate (clear bottom, PerkinElmer, cat#6005181) in OptiMEM no phenol red medium (Life Technologies) complemented with 4% FBS. Cells were left for 4 h at 37 °C before adding compounds. […] The final concentrations in the cells were 0, 5, 10 and 20 μM (therefore the intermediate 10X concentrations were 0, 50, 100 and 200 μM. Furthermore, 10 μl of 10X compounds were added in each well of the 96 well plate to 0, 5, 10 and 20 μM final concentrations (with final 0.2% DMSO each). Quadruplicates were performed for each point. Cells were left for an additional 20 h at 37 °C before the BRET2 signal reading directly after addition of Coelenterazine 400a substrate (10 μM final) to cells (Cayman Chemicals, cat#16157). BRET2 reading was carried out on an Envision instrument (2103 Multilabel Reader, PerkinElmer) with the BRET2 Dual Emission optical module (515 nm ± 30 and 410 nm ± 80; PerkinElmer).

[8] = tested on: HT1080 cells (NRAS^Q61K); assay: Cell viability (CellTiterGlo), HT1080; type: cell-based, human; conditions: HT1080, 0–20 μM, up to 72 h
Description: as §2, §3, §4, §5, §6, §7, §8, §9, §10, §11

SMILES: O=C(Nc1ccc2ccccc2n1)c1ccco1 [Abd-1, N-(2-quinolinyl)-2-furamide]
binding to HRAS^G12V in complex with anti-RAS scFv (cSPR) [1]: no binding
solubility [2]: 140 µM (≈ 33.4 µg/mL)
binding to GDP-bound form of HRAS (SPR) [3]: no binding
binding to GST-HRAS^G12V-GTPγS (SPR dose response) ([4]; 3 to 2000 μM range): bound and bind
Kd ([4]; SPR, estimated, single experimental analysis): > 370 µM

SMILES: CN(C)CCOc1ccc(C(=O)NCC2COc3ccccc3O2)cc1 (centres unmarked) [Abd-4]
effect on cell viability [6]: no effect on cell viability
activity in the RAS biosensor BRET assay [7]: do not show activity
effect on cell viability [8]: no effect on cell viability

Further lines, results first:

binding to KRAS^G12V-GppNHp (SPR) [5]: lower affinity than Abd-2
SMILES: NCC1COc2cc(Cl)ccc2O1 (centres unmarked) [Abd-3]

binding to KRAS^G12V-GppNHp (SPR) [5]: bind
SMILES: O=C(NC[C@H]1COc2ccccc2O1)c1ccco1 [Abd-2a]

binding to KRAS^G12V-GppNHp (SPR) [5]: bind
SMILES: O=C(NC[C@@H]1COc2ccccc2O1)c1ccco1 [Abd-2b]
